From US20110172217A1, “RING-FUSED MORPHOLINE DERIVATIVE HAVING PI3K-INHIBITING ACTIVITY” (Shionogi & Co., Ltd., priority 2008, published 2011)

Target: PI-3 kinase γ (Homo sapiens, UniProt P48736)
Test: PI3Kγ inhibitory activity, PI3-kinase HTRF assay (inhibition ratio)
Format: biochemical
Details: 0.5 h, compound at 50 μmol/L
Description: For each compound synthesized in the above Examples, PI3Kγ inhibitory activity was measured.
The PI3Kγ inhibitory activity of a compound was evaluated using PI3-kinase HTRF™ assay (Millipore) according to the following procedure:
To each well of a testing plate, 5 μL of a compound solution containing 10% DMSO (200 μmol/L or 40 μmol/L as the concentration of the compound), 5 μL of a substrate solution (40 μmol/L phosphatidylinositol (4,5)-bisphosphate, 20 mmol/L MgCl2, 10 mmol/L DTT), and 5 μL of a enzyme solution (80 μg/mL PI-3 kinase γ, 10 mmol/L MgCl2, 5 mmol/L DTT) were added, and then allowed to stand for 10 minutes.
Then, 5 μL of a reaction solution (40 μmol/L ATP, 10 mmol/L MgCl2, 5 mmol/L DTT) was added thereto. After reacting for 30 minutes at room temperature, 5 μL of a solution containing EDTA and biotinylated phosphatidylinositol (3,4,5)-triphosphate were added to quench the reaction.
5 μL of a detection reagent containing a europium-labeled anti-GST antibody, the GST-tagged PH domain, and allophycocyanin-labeled streptavidin was added thereto. After 18 hours, HTRF (excitation wavelength: 330 nm, measured wavelengths: 620 nm and 665 nm) was measured.
HTRF ratio was defined as the value obtained by dividing the amount of fluorescence obtained at the measured wavelength 665 nm by the amount of fluorescence obtained at 620 nm. The HTRF ratio in the absence of a compound was defined as 100% activity and the HTRF ratio in the absence of PI-3 kinase γ was defined as 0% activity to calculate an inhibition ratio which was defined as the PI3Kγ inhibitory activity of a compound at 50 μmol/L or 10 μmol/L.

Chain of PI-3 kinase γ (P48736 whole entry): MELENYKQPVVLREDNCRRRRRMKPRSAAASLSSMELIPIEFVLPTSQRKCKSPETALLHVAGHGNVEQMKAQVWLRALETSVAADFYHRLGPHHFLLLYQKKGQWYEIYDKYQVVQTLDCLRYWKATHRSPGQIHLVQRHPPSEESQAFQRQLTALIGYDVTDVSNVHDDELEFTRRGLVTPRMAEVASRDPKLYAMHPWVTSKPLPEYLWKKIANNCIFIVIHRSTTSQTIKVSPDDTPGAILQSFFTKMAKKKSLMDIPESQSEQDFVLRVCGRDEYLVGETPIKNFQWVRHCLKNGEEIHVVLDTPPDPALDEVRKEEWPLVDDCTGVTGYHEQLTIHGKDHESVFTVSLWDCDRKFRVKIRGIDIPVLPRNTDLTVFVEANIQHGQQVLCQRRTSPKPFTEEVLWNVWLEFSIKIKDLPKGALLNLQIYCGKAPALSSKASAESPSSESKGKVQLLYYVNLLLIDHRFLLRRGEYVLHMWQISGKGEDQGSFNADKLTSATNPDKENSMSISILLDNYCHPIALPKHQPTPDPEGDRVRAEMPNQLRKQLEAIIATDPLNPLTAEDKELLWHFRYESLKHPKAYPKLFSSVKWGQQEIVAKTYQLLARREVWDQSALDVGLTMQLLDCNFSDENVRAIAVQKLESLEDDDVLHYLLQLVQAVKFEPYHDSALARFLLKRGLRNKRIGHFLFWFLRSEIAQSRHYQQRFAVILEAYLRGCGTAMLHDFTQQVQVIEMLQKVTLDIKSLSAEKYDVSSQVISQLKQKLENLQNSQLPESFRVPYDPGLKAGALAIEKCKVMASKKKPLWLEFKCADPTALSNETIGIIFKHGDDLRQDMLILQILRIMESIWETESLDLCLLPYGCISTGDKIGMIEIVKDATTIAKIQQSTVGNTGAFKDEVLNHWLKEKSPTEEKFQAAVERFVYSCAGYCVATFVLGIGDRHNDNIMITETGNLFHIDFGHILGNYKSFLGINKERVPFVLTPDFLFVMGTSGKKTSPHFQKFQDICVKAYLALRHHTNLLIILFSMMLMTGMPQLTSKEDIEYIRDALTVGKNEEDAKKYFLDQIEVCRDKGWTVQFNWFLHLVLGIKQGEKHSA

inhibition at 50 µM	Structure (SMILES)
≥ 95%	O=C(O)Cc1ccc(Nc2ccc3c(n2)N(C(=O)Nc2ccccc2)CCO3)cc1 [Compound I-225]
95%	O=C(Nc1ccccc1)N1CCOc2cc(Nc3ccc4c(c3)CCO4)cnc21 [Compound I-320]
90%	S=C(Nc1cccnc1)N1CCOc2cccnc21 [Compound I-5]
≥ 95%	O=C(Nc1ccccc1)N1CCOc2ccc(Nc3cccnc3)nc21 [Compound I-181]
84%	CC(C)(C)OC(=O)CCNC(=O)c1cnc2c(c1)OCCN2C(=O)Nc1ccccc1 [Compound I-305]
≥ 95%	O=C(O)COc1ccc(Nc2ccc3c(n2)N(C(=O)Nc2ccccc2)CCO3)cc1 [Compound I-224]
≥ 95%	O=C(O)c1cncc(-c2ccc3c(n2)N(C(=O)Nc2ccccc2)CCO3)c1 [Compound I-184]
81%	CC1(C/C=C/c2ccccc2)SC(N2CCOc3cccnc32)=NC1=O (centres unmarked) [Compound I-6]
≥ 95%	CCOC(=O)CCCc1ccc2c(n1)N(C(=O)Nc1ccccc1)CCO2 [Compound I-89]
≥ 95%	Cc1cc(C(=O)O)ccc1-c1ccc2c(n1)N(C(=O)Nc1ccccc1)CCO2 [Compound I-230]
≥ 95%	COc1ccc(NC(=O)N2CCOc3ccc(Nc4ccc(C(=O)O)cc4)nc32)cc1OC [Compound I-210]
78%	CC(C)(C)OC(=O)c1cccc(Nc2ccc3c(n2)N(C(=O)Nc2ccccc2)CCO3)c1 [Compound I-142]
80%	C=CCC1(C)SC(N2CCOc3cccnc32)=NC1=O (centres unmarked) [Compound I-3]
83%	Cc1n[nH]c(C)c1-c1ccc2c(n1)N(C(=O)Nc1ccccc1)CCO2 [Compound I-189]
76%	COC(=O)c1ccc(-c2ccc(Nc3cnc4c(c3)OCCN4C(=O)Nc3ccccc3)cc2)cc1 [Compound I-321]
≥ 95%	CC(C)(C)OC(=O)CNC(=O)c1cccc(Nc2ccc3c(n2)N(C(=O)Nc2ccccc2)CCO3)c1 [Compound I-272]
≥ 95%	CCOC(=O)Cc1ccc(Nc2ccc3c(n2)N(C(=O)Nc2ccccc2)CCO3)cc1 [Compound I-212]
75%	COc1cccc(NC(=O)N2CCOc3nc(-c4ccc(C(=O)O)cc4)ccc32)c1 [Compound I-265]
87%	O=C(Nc1ccccc1)N1CCOc2cc(Nc3ccc4ncccc4c3)cnc21 [Compound I-316]
≥ 95%	O=C(Nc1ccccc1)N1CCOc2cc(-c3cnn(CCN4CCOCC4)c3)cnc21 [Compound I-293]
92%	O=C(Nc1ccccc1)N1CCOc2ccc(-c3nccs3)nc21 [Compound I-83]
≥ 95%	NCCOc1ccccc1Nc1ccc2c(n1)N(C(=O)Nc1ccccc1)CCO2 [Compound I-223]
≥ 95%	COc1ccc(-c2ccc3c(n2)N(C(=O)Nc2ccccc2)CCO3)cc1OC [Compound I-99]
88%	O=C(O)CC(=O)Nc1cnc2c(c1)OCCN2C(=O)Nc1ccccc1 [Compound I-161]

inhibition at 50 µM	Structure (SMILES)
83%	CCOC(=O)CNC(=O)Nc1cnc2c(c1)OCCN2C(=O)Nc1ccccc1 [Compound I-238]
87%	O=C(O)c1ccc(-c2cnc3c(c2)OCCN3C(=O)Nc2ccccc2)cc1 [Compound I-111]
77%	COC(=O)c1ccc(O)c(Nc2ccc3c(n2)N(C(=O)Nc2ccccc2)CCO3)c1 [Compound I-217]
≥ 95%	CCOC(=O)N1CCC(NC(=O)N2CCOc3ccc(-c4ccc(C(=O)O)cc4)nc32)CC1 [Compound I-203]
75%	O=C(Nc1ccccc1)N1CCOc2ccc(Cc3ccccc3)nc21 [Compound I-87]
≥ 95%	O=C(Nc1cccnc1)N1CCOc2cc(Nc3ccccc3)cnc21 [Compound I-271]
≥ 95%	O=C(Nc1ccccc1)N1CCOc2cc(Nc3ccc4ncsc4c3)cnc21 [Compound I-317]
≥ 95%	O=C(O)COc1cccc(Nc2cnc3c(c2)OCCN3C(=O)Nc2ccccc2)c1 [Compound I-241]
≥ 95%	COC(=O)c1ccc(Nc2ccc3c(n2)N(C(=O)Nc2ccccc2)CCO3)cc1 [Compound I-229]
76%	CC(NC(=O)c1ccc2c(n1)N(C(=O)Nc1ccccc1)CCO2)C(=O)O (centres unmarked) [Compound I-38]
≥ 95%	CC(C)(C)OC(=O)COc1cccc(Nc2cnc3c(c2)OCCN3C(=O)Nc2ccccc2)c1 [Compound I-234]
≥ 95%	CC(C)(C)OC(=O)NCCOc1ccccc1Nc1ccc2c(n1)N(C(=O)Nc1ccccc1)CCO2 [Compound I-215]
86%	O=C(O)c1ccc(Nc2ccc3c(n2)N(C(=O)Nc2ccccc2)CCO3)nc1 [Compound I-183]
82%	O=C(Nc1ccccc1)N1CCOc2ccc(C3CCCCC3)nc21 [Compound I-86]
87%	COc1ccc2cc(-c3cnc4c(c3)OCCN4C(=O)Nc3ccccc3)[nH]c2c1 [Compound I-302]
≥ 95%	COC(=O)c1ccc(Nc2ccc3c(n2)N(C(=O)Nc2ccccc2)CCO3)c(OCCNC(=O)OC(C)(C)C)c1 [Compound I-216]
≥ 95%	CC(C)(C)OC(=O)COc1ccc(Nc2ccc3c(n2)N(C(=O)Nc2ccccc2)CCO3)cc1 [Compound I-213]
≥ 95%	COc1cccc(NC(=O)N2CCOc3ccc(Nc4ccc(C(=O)O)cc4)nc32)c1 [Compound I-211]
≥ 95%	CCOC(=O)CCc1ccc2c(n1)N(C(=O)Nc1ccccc1)CCO2 [Compound I-92]
74%	O=C(Nc1ccccc1)N1CCOc2ccc(/C=C/c3ccccc3)nc21 [Compound I-60]
≥ 95%	O=C(O)c1ccc(-c2ccc3c(n2)N(C(=O)NCCO)CCO3)cc1 [Compound I-205]
≥ 95%	O=C(O)Cc1cccc(-c2ccc3c(n2)N(C(=O)Nc2ccccc2)CCO3)c1 [Compound I-152]
≥ 95%	COC(=O)c1cncc(-c2ccc3c(n2)N(C(=O)Nc2ccccc2)CCO3)c1 [Compound I-249]
≥ 95%	NCCOc1cc(C(=O)O)ccc1Nc1ccc2c(n1)N(C(=O)Nc1ccccc1)CCO2 [Compound I-227]

inhibition at 50 µM	Structure (SMILES)
≥ 95%	NCCOc1ccccc1NC(=O)c1ccc2c(n1)N(C(=O)Nc1ccccc1)CCO2 [Compound I-130]
87%	COCOc1ccc(C(=O)O)cc1NC(=O)c1ccc2c(n1)N(C(=O)Nc1ccccc1)CCO2 [Compound I-218]
≥ 95%	O=C(Nc1ccccc1)N1CCOc2ccc(Nc3ccccn3)nc21 [Compound I-180]
74%	O=C(Nc1ccccc1)N1CCOc2cc(-c3cc4ccccc4[nH]3)cnc21 [Compound I-282]
≥ 95%	CC(C)(C)OC(=O)NCCOc1ccc(Nc2ccc3c(n2)N(C(=O)Nc2ccccc2)CCO3)cc1 [Compound I-214]
≥ 95%	O=C(O)c1ccc(-c2ccc3c(n2)OCCN3C(=O)Nc2ccccc2C(=O)O)cc1 [Compound I-259]
94%	Nc1cnc2c(c1)OCCN2C(=O)Nc1ccccc1 [Compound I-148]
≥ 95%	O=C(O)c1cccc(NC(=O)c2ccc3c(n2)N(C(=O)Nc2ccccc2)CCO3)c1 [Compound I-126]
94%	COC(=O)c1cccc(-c2ccc3c(n2)N(C(=O)Nc2ccccc2)CCO3)c1 [Compound I-103]
87%	CCOC(=O)CC(=O)Nc1ccc2c(n1)N(C(=O)Nc1ccccc1)CCO2 [Compound I-122]
≥ 95%	CC(=O)Nc1cnc2c(c1)OCCN2C(=O)Nc1ccccc1 [Compound I-173]
≥ 95%	O=C(O)CCc1ccc2c(n1)N(C(=O)Nc1ccccc1)CCO2 [Compound I-94]
89%	O=C(Nc1ccccc1)N1CCOc2ccc(-c3ccc(CO)cc3)nc21 [Compound I-97]
89%	O=C(Nc1ccccc1)N1CCOc2cccnc21 [Compound I-2]
88%	O=C(O)c1ccc(-c2cnc3c(c2)OCCN3C(=O)Nc2ccccc2)s1 [Compound I-285]
75%	C#CCC1(C)SC(N2CCOc3cccnc32)=NC1=O (centres unmarked) [Compound I-7]
91%	CCN(CC)c1cc(F)cc(Nc2cnc3c(c2)OCCN3C(=O)Nc2ccccc2)c1 [Compound I-328]
≥ 95%	O=C(Nc1ccccc1)N1CCOc2ccc(-c3ccoc3)nc21 [Compound I-101]
82%	O=C(Nc1ccccc1)N1CCOc2cc(Nc3ccc(CN4CCS(=O)(=O)CC4)cc3)cnc21 [Compound I-325]
94%	O=C(Nc1ccccc1)N1CCOc2ccc(-c3cccnc3)nc21 [Compound I-102]
88%	O=C(O)Cn1cc(-c2cnc3c(c2)OCCN3C(=O)Nc2ccccc2)cn1 [Compound I-280]
≥ 95%	Cc1noc(C)c1-c1ccc2c(n1)N(C(=O)Nc1ccccc1)CCO2 [Compound I-100]
83%	O=C(Nc1ccccc1)N1CCOc2cc(Nc3ccccc3)cnc21 [Compound I-132]
